In patent publication US6207393A, “Inhibition of intracellular signal transduction by 14-3-3-binding peptides” (Washington University, priority 1999, dated 2001):
Several values for one entry are separate records, joined by “and”; a condition that tells them apart may be missing. Equal entries are not always repeated. Where a SMILES comes first, the peptide text is derived from it. Where no end group is shown, it is not given here. [ ]: non-standard residue; d: D form. pS = N[C@@H](COP(=O)(O)O)C(=O)O

What was measured:
14-3-3 eta = target: T1, 14-3-3 eta (Homo sapiens, UniProt Q04917); experiment: SPR competitive inhibition of 14-3-3 eta binding to phosphorylated Raf-259 peptide; details: isoform eta
T1 construct: made in house; host or cells: E. coli DH5α (vector pGEX-KT)
T1 sequence (Q04917 1-246): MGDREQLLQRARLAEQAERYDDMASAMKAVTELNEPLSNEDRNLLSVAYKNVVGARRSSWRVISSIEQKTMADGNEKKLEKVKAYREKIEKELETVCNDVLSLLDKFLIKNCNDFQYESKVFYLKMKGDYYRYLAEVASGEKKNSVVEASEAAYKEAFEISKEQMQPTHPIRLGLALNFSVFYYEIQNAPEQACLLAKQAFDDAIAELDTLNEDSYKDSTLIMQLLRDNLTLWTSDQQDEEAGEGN
Protocol: (§1) The ability of each peptide to inhibit binding of 14-3-3 zeta to the phosphorylated peptide was then tested in a range of concentrations between 1 and 50 μM. 14-3-3 zeta was prepared according to the methods in Example 1 and binding affinities and specificities were determined using the peptides in Table 2. The 14-3-3 zeta fusion proteins (0.5-1.0 μM) were pre-incubated with a given peptide at concentrations between 1 μM and 50 μM. 14-3-3 zeta was then infused across a sensor chip surface which had been previously coupled with the phosphorylated Raf-259 peptide (SEQ ID NO: 4). IC50 values were determined by plotting the concentration of competitor peptide required to achieve a 50% reduction in equilibrium binding.
(§2) There are seven known isoforms of 14-3-3 which form homo- and heterodimers in vivo. If different isoforms of 14-3-3 could bind to proteins with distinct specificities, heterodimeric forms of 14-3-3 might function as modular linker proteins, bringing together different proteins into a single complex. We were, therefore, interested in determining whether different 14-3-3 isoforms recognize phosphoserine in a sequence specific fashion. This hypothesis was tested by expressing and purifying three other 14-3-3 isoforms, eta, beta and tau, and measuring their affinity towards the panel of phosphorylated peptides generated above. Using the Surface Plasmon Resonance method, the "on" and "off" rates for 14-3-3 binding to the phosphorylated Raf-259 peptide were calculated (Table 6).
(§3) Competitive inhibition with the mutated phosphorylated Raf-1 peptides was used to determine whether their specificities were similar (Table 7). In each case, the calculated IC50 s were very similar to those calculated for 14-3-3 zeta.

14-3-3 beta = target: T2, 14-3-3 beta (Homo sapiens, UniProt P31946); experiment: SPR competitive inhibition of 14-3-3 beta binding to phosphorylated Raf-259 peptide; details: isoform beta
T2 construct: made in house; host or cells: E. coli DH5α (vector pGEX-KT)
T2 sequence (P31946 1-246): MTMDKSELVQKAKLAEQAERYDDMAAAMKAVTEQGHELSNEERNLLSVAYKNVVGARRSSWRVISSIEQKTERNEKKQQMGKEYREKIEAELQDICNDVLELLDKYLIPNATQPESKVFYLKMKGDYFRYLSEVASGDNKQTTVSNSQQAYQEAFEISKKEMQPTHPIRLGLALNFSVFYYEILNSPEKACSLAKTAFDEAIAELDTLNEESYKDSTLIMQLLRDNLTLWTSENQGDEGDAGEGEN
Protocol: as §1, §2, §3

14-3-3 tau = target: T3, 14-3-3 tau (Homo sapiens, UniProt P27348); experiment: SPR competitive inhibition of 14-3-3 tau binding to phosphorylated Raf-259 peptide; details: isoform tau
T3 construct: made in house; host or cells: E. coli DH5α (vector pGEX-KT)
T3 sequence (P27348 1-245): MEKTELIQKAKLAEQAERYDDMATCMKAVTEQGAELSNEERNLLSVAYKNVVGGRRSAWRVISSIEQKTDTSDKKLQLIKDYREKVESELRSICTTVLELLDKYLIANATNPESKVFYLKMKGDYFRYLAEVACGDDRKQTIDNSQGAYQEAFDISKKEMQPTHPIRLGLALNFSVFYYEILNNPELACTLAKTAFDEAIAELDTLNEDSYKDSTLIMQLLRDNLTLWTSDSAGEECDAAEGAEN
Protocol: as §1, §2, §3

14-3-3 zeta [1] = target: T4, 14-3-3 zeta (Homo sapiens, UniProt P63104); experiment: SPR competitive inhibition of 14-3-3 zeta binding to chip-coupled phosphorylated Raf-259 peptide; details: 14-3-3 zeta 0.5-1.0 μM; competitor 1-50 μM; relative affinity only
T4 construct: made in house; host or cells: E. coli DH5α (vector pGEX-KT)
T4 sequence (P63104 1-245): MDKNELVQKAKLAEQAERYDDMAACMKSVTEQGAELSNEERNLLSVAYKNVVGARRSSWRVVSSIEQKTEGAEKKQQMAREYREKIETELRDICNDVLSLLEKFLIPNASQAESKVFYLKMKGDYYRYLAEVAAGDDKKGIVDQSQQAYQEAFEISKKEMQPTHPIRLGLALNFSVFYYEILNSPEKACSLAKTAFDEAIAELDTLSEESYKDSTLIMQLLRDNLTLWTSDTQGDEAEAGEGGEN
Protocol: as §1

14-3-3 zeta [2] = target: T4, 14-3-3 zeta; experiment: Surface plasmon resonance, GST-14-3-3 zeta binding to immobilized biotinylated Raf-259 peptide (binding and kinetics); details: 14-3-3 zeta
Protocol: These experiments were performed using the BIAcore 2000 (Pharmacia). The basic principles and detection methods have been reviewed previously (Jonsson et al. Biotech. 11:620-7, 1991; Jonsson et al. Ann Bio Clin 51:19-26, 1993 which are incorporated by reference). In brief, 5 μl of the biotinylated raf-259 peptide (1 nM) was immobilized onto streptavidin-coated (SA5, Pharmacia) sensor chips at a flow rate of 5 μl/min at 25° C. […] To phosphorylate the immobilized peptides, 5 U of PKA in a buffer containing 200 μM ATP in 50 μl was infused over the chip at a flow rate of 2 μl/min at 30° C.
Because the surface plasmon resonance detects binding in real time, this method can be used to directly determine the rates of association (kon) and dissociation (koff). For these kinetic measurements, GST/14-3-3 fusion proteins were injected over a range of concentrations between 200 nM and 5 μM. The "on" rate, kon, was determined by calculating dR/dt for the initial linear portion of association using the Biaevaluation software (Pharmacia). Because ligand rebinding to the sensor chip can affect the "off" rate (koff, Panayotou et al. Mol Cell Biol 13:3567-76, 1993 which is incorporated by reference), we measured the "off" rate in the presence of 50 μM free ligand by using the coinject function of the Biacore. The "off" rate measured in the absence of 50 μM free ligand was approximately 10-fold lower.
The biotinylated, […] Raf-1 peptide (SEQ ID NO: 4) was coupled to avidin coated chip surface to study the kinetics of its binding to 14-3-3 zeta. The association rate was determined to be approximately 2.3×10^4 M^-1×s^-1 and the dissociation rate was determined to be approximately 2.8×10^-3 s^-1. To minimize the effects of protein rebinding to the surface of the sensor chip, the dissociation rate was measured in the presence of 50 μM free phosphorylated Raf-1 peptide.

| Molecule | IC50 (14-3-3 eta) [µM] | IC50 (14-3-3 beta) [µM] | IC50 (14-3-3 tau) [µM] | IC50 (14-3-3 zeta [1]) | Kd (14-3-3 zeta [2]; KD = koff/kon, read-out: apparent KD measured by SPR) [µM] | koff (14-3-3 zeta [2]; in the presence of 50 μM free phosphorylated Raf-1 peptide, read-out: dissociation rate) [s⁻¹] | kon (14-3-3 zeta [2]; read-out: association rate) [M⁻¹ s⁻¹] |
| --- | --- | --- | --- | --- | --- | --- | --- |
| CC(C)C[C@H](N)C(=O)N[C@@H](CO)C(=O)N[C@@H](CCC(N)=O)C(=O)N[C@@H](C)C(=O)N[C@@H](CCC(N)=O)C(=O)N[C@@H](C)C(=O)N[C@@H](CO)C(=O)N[C@H](C(=O)N[C@@H](COP(=O)(O)O)C(=O)N[C@H](C(=O)N1CCC[C@H]1C(=O)N[C@@H](CC(N)=O)C(=O)N[C@H](C(=O)N[C@@H](Cc1c[nH]cn1)C(=O)N[C@@H](C)C(=O)O)C(C)C)[C@@H](C)O)[C@@H](C)O [254/256RA] (H-LSQAQAST[pS]TPNVHA-OH) | > 50 | > 50 | > 50 | > 50 µM |  |  |  |
| CSCC[C@H](NC(=O)[C@H](Cc1c[nH]cn1)NC(=O)[C@@H](NC(=O)[C@H](CC(N)=O)NC(=O)[C@H](C)NC(=O)[C@@H](NC(=O)[C@H](COP(=O)(O)O)NC(=O)[C@@H](NC(=O)[C@H](CO)NC(=O)[C@H](CCCNC(=N)N)NC(=O)[C@H](CCC(N)=O)NC(=O)[C@H](CCCNC(=N)N)NC(=O)[C@H](CCC(N)=O)NC(=O)[C@H](CO)NC(=O)[C@@H](N)CC(C)C)[C@@H](C)O)[C@@H](C)O)C(C)C)C(=O)O [PA] (H-LSQRQRST[pS]TANVHM-OH) | 20 | 24 | 27 | ~25 µM and 25 µM |  |  |  |
| CC(C)C[C@H](N)C(=O)N[C@@H](CO)C(=O)N[C@@H](CCC(N)=O)C(=O)N[C@@H](C)C(=O)N[C@@H](CCC(N)=O)C(=O)N[C@@H](CCCNC(=N)N)C(=O)N[C@@H](CO)C(=O)N[C@H](C(=O)N[C@@H](COP(=O)(O)O)C(=O)N[C@H](C(=O)N1CCC[C@H]1C(=O)N[C@@H](CC(N)=O)C(=O)N[C@H](C(=O)N[C@@H](Cc1c[nH]cn1)C(=O)N[C@@H](C)C(=O)O)C(C)C)[C@@H](C)O)[C@@H](C)O [Peptide 254RA] (H-LSQAQRST[pS]TPNVHA-OH) |  |  |  | 9 µM |  |  |  |
| CC(C)C[C@H](N)C(=O)N[C@@H](CO)C(=O)N[C@@H](CCC(N)=O)C(=O)N[C@@H](CCCNC(=N)N)C(=O)N[C@@H](CCC(N)=O)C(=O)N[C@@H](C)C(=O)N[C@@H](CO)C(=O)N[C@H](C(=O)N[C@@H](COP(=O)(O)O)C(=O)N[C@H](C(=O)N1CCC[C@H]1C(=O)N[C@@H](CC(N)=O)C(=O)N[C@H](C(=O)N[C@@H](Cc1c[nH]cn1)C(=O)N[C@@H](C)C(=O)O)C(C)C)[C@@H](C)O)[C@@H](C)O [Peptide 256RA] (H-LSQRQAST[pS]TPNVHA-OH) |  |  |  | 19 µM |  |  |  |
| CC(C)C[C@H](N)C(=O)N[C@@H](CO)C(=O)N[C@@H](CCC(N)=O)C(=O)N[C@@H](C)C(=O)N[C@@H](CCC(N)=O)C(=O)N[C@@H](CO)C(=O)N[C@@H](CCCNC(=N)N)C(=O)N[C@H](C(=O)N[C@@H](COP(=O)(O)O)C(=O)N[C@H](C(=O)N1CCC[C@H]1C(=O)N[C@@H](CC(N)=O)C(=O)N[C@H](C(=O)N[C@@H](Cc1c[nH]cn1)C(=O)N[C@@H](C)C(=O)O)C(C)C)[C@@H](C)O)[C@@H](C)O [Peptide R-2] (H-LSQAQSRT[pS]TPNVHA-OH) |  |  |  | > 50 µM |  |  |  |
| CC(C)C[C@H](N)C(=O)N[C@@H](CO)C(=O)N[C@@H](CCC(N)=O)C(=O)N[C@@H](C)C(=O)N[C@@H](CCCNC(=N)N)C(=O)N[C@@H](CCC(N)=O)C(=O)N[C@@H](CO)C(=O)N[C@H](C(=O)N[C@@H](COP(=O)(O)O)C(=O)N[C@H](C(=O)N1CCC[C@H]1C(=O)N[C@@H](CC(N)=O)C(=O)N[C@H](C(=O)N[C@@H](Cc1c[nH]cn1)C(=O)N[C@@H](C)C(=O)O)C(C)C)[C@@H](C)O)[C@@H](C)O [Peptide R-4] (H-LSQARQST[pS]TPNVHA-OH) |  |  |  | 11 µM |  |  |  |
| CC(C)C[C@H](N)C(=O)N[C@@H](CO)C(=O)N[C@@H](CCC(N)=O)C(=O)N[C@@H](CCCNC(=N)N)C(=O)N[C@@H](CCC(N)=O)C(=O)N[C@@H](CCCNC(=N)N)C(=O)N[C@@H](COP(=O)(O)O)C(=O)N[C@H](C(=O)N[C@@H](COP(=O)(O)O)C(=O)N[C@H](C(=O)N1CCC[C@H]1C(=O)N[C@@H](CC(N)=O)C(=O)N[C@H](C(=O)N[C@@H](Cc1c[nH]cn1)C(=O)N[C@@H](C)C(=O)O)C(C)C)[C@@H](C)O)[C@@H](C)O [pS-Raf-257,259] (H-LSQRQR[pS]T[pS]TPNVHA-OH) | > 50 | > 50 | > 50 | > 50 µM |  |  |  |
| CC(C)C[C@H](N)C(=O)N[C@@H](CO)C(=O)N[C@@H](CCC(N)=O)C(=O)N[C@@H](CCCNC(=N)N)C(=O)N[C@@H](CCC(N)=O)C(=O)N[C@@H](CCCNC(=N)N)C(=O)N[C@@H](COP(=O)(O)O)C(=O)N[C@H](C(=O)N[C@@H](CO)C(=O)N[C@H](C(=O)N1CCC[C@H]1C(=O)N[C@@H](CC(N)=O)C(=O)N[C@H](C(=O)N[C@@H](Cc1c[nH]cn1)C(=O)N[C@@H](C)C(=O)O)C(C)C)[C@@H](C)O)[C@@H](C)O [pS-Raf-257] (H-LSQRQR[pS]TSTPNVHA-OH) | > 50 | > 50 | > 50 | > 50 µM |  |  |  |
| LSQRQRSTSTPNVHM [Raf-259, LSQRQRSTSTPNVHM, reference compound] |  |  |  |  | ~0.122 | ~0.0028 | ~23000 |
